Data reported in patent publication US20240051985A1, “METTL3 MODULATORS” (ACCENT THERAPEUTICS, INC., priority 2020, published 2024).

How the values were obtained:
METTL3/METTL14 = METTL3/METTL14 (Homo sapiens, UniProt Q86U44); test: METTL3-14 standard enzyme assay (3H-SAM flashplate); details: Table 4; METTL3 biochemical assay
Summary of the method: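 Radiometric methyltransferase read-out: after quenching with excess unlabelled SAM (15 μM), biotinylated RNA was captured on streptavidin flashplates (2 h, 25° C) and counted. Reactions contained 2.5 nM enzyme (5 min preincubation), 100 nM RNA and 100 nM 3H-SAM, ran 30 min in HEPES pH 7.5 buffer with KCl, MgCl2, DTT.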

FLT3-ITD [1] = molecular target: T1, FLT3-ITD (Homo sapiens, UniProt P36888); test: FLT3-ITD LanthaScreen assay; assay type: biochemical; details: Table 4
T1 sequence (P36888 1-993): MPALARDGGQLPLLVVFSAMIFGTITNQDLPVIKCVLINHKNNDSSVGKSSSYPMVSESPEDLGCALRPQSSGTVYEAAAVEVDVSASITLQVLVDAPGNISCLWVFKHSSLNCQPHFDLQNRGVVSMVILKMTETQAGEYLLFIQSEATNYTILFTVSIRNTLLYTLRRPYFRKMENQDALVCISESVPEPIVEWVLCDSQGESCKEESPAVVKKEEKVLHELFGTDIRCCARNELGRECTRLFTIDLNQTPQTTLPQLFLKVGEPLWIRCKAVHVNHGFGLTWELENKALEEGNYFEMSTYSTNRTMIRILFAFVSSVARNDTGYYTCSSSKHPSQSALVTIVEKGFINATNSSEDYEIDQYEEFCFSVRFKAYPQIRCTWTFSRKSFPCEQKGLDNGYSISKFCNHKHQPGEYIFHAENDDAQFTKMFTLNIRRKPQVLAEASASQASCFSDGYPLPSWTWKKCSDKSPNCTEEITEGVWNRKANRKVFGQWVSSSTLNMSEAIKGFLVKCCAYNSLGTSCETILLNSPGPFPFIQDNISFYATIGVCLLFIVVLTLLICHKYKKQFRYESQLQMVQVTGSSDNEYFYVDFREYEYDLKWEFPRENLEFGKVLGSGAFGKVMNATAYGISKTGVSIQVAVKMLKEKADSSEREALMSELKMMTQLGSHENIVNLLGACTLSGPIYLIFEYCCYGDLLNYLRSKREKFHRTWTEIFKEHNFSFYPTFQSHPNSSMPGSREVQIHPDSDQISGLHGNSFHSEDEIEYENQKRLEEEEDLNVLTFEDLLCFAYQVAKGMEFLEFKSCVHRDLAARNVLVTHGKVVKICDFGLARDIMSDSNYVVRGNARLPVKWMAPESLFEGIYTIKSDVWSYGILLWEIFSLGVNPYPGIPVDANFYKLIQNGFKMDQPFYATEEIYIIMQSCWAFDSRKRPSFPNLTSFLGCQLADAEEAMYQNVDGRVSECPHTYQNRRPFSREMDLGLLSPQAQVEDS
Experimental: (§1) FLT3/FLT3-ITD LanthaScreen Assays
(§2) Assays were performed in a 10 μl-volume in 384-well polypropylene microplates (Perkin Elmer Proxiplate, cat. No. 6059480) at ambient temperature. Optimized 1× assay buffer was 50 mM Hepes pH 7.5, 2 mM DTT, 0.01% Tween, 0.01% BSA, 10 mM MgCl2. For compound screening FLT3 (final concentration, f.c.=[…]) or FLT3-ITD (f.c.=[…]) was added using a Multidrop Combi (ThermoFisher Scientific, Waltham, MA) and preincubated for 10 min. Reactions were started by adding fluorescein-poly GT (f.c.=200 nM) and ATP (f.c.=57 μM) substrates. Reactions proceeded for 40 minutes. The reactions were stopped with a detection mixture of EDTA (f.c.=20 mM) and terbium-conjugated anti-phoso tyrosine antibody pY20 (f.c.=2 nM). The plates were sealed and read on an Envision (PerkinElmer, Waltham, MA) using 340 nm excitation and emission reads at 495 and 520 nM.

FLT3 [2] = molecular target: T2, FLT3 (Homo sapiens, UniProt P36888); test: FLT3 LanthaScreen assay; assay type: biochemical; details: Table 4
T2 sequence (P36888 27-993): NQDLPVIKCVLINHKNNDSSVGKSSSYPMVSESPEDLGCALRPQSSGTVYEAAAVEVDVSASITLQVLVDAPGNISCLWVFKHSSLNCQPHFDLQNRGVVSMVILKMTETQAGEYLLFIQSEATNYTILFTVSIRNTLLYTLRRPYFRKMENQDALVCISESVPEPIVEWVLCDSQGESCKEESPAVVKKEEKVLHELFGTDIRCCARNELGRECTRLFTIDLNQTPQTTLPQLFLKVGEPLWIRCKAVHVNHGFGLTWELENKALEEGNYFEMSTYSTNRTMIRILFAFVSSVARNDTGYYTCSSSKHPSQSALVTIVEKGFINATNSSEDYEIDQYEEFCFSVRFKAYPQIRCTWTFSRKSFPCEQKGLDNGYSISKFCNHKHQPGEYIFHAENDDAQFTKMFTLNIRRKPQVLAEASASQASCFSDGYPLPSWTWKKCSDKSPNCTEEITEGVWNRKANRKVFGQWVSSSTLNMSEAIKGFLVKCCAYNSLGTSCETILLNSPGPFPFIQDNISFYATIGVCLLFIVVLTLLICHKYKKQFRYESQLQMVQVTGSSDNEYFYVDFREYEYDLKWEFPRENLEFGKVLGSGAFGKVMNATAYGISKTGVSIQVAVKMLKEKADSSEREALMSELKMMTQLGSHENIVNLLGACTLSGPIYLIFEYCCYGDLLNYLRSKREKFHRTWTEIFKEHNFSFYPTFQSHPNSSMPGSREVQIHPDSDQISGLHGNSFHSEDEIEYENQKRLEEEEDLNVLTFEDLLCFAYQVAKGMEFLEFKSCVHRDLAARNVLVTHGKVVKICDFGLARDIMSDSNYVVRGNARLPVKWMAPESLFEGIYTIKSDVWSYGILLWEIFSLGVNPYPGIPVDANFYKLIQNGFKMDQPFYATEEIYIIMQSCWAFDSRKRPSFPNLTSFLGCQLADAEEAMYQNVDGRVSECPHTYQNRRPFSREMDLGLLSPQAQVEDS
Experimental: as §1, §2

PRMT5-MEP50 = PRMT5-MEP50 (Homo sapiens, UniProt O14744); test: PRMT5 assay (3H-SAM flashplate); details: Table 4; PRMT5 biochemical assay
Sequence of PRMT5-MEP50 (O14744 whole entry): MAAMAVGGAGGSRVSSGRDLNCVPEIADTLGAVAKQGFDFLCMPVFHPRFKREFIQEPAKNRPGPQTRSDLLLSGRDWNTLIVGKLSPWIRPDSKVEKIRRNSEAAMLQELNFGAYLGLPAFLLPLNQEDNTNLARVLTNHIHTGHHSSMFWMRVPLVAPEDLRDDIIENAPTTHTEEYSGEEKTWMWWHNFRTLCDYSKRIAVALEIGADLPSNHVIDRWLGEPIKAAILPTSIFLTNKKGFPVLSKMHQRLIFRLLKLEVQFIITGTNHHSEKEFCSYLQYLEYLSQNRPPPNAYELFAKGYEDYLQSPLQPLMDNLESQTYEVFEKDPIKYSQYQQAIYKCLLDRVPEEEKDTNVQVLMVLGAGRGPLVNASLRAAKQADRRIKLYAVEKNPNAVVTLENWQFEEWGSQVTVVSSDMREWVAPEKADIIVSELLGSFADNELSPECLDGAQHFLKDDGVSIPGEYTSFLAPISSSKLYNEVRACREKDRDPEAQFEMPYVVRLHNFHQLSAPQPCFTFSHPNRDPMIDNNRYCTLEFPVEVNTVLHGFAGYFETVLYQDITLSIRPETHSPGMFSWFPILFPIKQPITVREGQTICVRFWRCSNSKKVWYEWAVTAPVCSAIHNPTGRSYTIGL
Sequence of PRMT5-MEP50 (Q9BQA1 whole entry partner): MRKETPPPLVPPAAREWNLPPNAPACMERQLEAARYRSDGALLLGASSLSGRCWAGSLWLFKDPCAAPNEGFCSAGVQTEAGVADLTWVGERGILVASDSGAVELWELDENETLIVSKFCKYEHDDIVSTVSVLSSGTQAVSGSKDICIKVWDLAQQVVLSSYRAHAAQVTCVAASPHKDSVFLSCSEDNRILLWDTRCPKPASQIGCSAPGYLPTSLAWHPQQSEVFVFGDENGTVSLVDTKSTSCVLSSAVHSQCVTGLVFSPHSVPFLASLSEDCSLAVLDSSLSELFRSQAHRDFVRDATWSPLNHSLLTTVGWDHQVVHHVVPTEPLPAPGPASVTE
Summary of the method: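 Radiometric methyl-transfer read-out: 3H-methyl transferred to a 3′-biotinylated, acetylated H4 peptide substrate (100 nM) from 3H-SAM (250 nM), captured on streptavidin scintillation plates. Enzyme complex 2.5 nM, pH 8.0 Tris buffer with DTT and Tween, compound preincubation 5 min, 60 min reaction stopped with excess unlabeled SAM.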

FLT3-ITD [3] = molecular target: T1, FLT3-ITD; test: FLT3-ITD Caliper assay; assay type: biochemical; details: Table 4; read-out: FLT3-ITD Calipher assay IC50
Experimental: (§3) FLT3/FLT3-ITD Caliper Assays
(§4) Assays were performed in a 20 μl-volume in 384-well polypropylene microplates (Perkin Elmer Proxiplate, cat. No. 6059480) at ambient temperature. Optimized 1× assay buffer was 50 mM Hepes pH 7.5, 2 mM DTT, 0.01% Tween, 0.01% BSA, 10 mM MgCl2. For compound screening FLT3 (final concentration, f.c.=0.9 nM) or FLT3-ITD (f.c.=7 nM) was added using a Multidrop Combi (ThermoFisher Scientific, Waltham, MA) and preincubated for 10 min. Reactions were started by adding fluorescein-peptide (sequence 5-FAM-EAIYAAPFAKKK-CONH2) (f.c.=300 μM) and ATP (FLT3 f.c.=97 μM FLT3-ITD f.c.=146 μM) substrates. Reactions proceeded for 60 minutes. The reactions were stopped with LabChip ProfilerPro Separation Buffer containing EDTA (f.c.=20 mM). The plates were read on a Caliper microfluidics reader (PerkinElmer, Waltham, MA).

FLT3 [4] = molecular target: T2, FLT3; test: FLT3 Caliper assay; assay type: biochemical; details: Table 4; read-out: FLT3 Calipher assay IC50
Experimental: as §3, §4

Sequence of METTL3/METTL14 (Q86U44 whole entry, species assumed): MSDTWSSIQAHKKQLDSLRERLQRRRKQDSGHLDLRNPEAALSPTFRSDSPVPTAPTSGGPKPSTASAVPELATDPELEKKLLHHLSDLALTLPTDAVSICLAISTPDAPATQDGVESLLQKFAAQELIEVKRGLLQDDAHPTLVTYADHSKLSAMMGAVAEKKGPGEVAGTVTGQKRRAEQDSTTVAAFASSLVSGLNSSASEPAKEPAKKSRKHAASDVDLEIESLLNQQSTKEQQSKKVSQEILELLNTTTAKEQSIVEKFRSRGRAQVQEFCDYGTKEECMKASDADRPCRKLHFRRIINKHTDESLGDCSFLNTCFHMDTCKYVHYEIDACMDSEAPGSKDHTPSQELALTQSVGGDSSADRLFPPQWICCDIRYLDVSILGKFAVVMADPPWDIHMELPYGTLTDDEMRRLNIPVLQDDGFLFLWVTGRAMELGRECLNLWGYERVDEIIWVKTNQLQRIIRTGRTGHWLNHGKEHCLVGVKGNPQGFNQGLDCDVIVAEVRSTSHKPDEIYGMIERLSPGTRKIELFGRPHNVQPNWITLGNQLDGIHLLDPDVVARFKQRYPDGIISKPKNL
Sequence of METTL3/METTL14 (Q9HCE5 whole entry partner, species assumed): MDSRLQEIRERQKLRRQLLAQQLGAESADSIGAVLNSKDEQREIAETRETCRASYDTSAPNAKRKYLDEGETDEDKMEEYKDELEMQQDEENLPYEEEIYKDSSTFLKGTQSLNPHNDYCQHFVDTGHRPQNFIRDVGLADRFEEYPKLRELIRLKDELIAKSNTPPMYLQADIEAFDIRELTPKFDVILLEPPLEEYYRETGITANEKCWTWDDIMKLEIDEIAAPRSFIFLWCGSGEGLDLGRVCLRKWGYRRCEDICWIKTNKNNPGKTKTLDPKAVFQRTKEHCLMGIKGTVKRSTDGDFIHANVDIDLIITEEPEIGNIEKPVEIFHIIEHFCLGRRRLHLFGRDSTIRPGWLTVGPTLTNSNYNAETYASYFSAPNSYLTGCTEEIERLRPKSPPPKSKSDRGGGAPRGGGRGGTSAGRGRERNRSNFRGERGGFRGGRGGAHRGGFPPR

IC50 (METTL3/METTL14) [nM] | IC50 (FLT3-ITD [1]) [nM] | IC50 (FLT3 [2]) [nM] | IC50 (PRMT5-MEP50) [nM] | IC50 (FLT3-ITD [3]) [nM] | IC50 (FLT3 [4]) [nM] | Structure (SMILES)
100 to 1000 | ≥ 1000 | ≥ 1000 | < 10 | – | – | CNc1ccc2ccc(NC(=O)[C@H]3O[C@@H](n4ccc5c(N)ncnc54)[C@@H](F)[C@@H]3O)cc2n1 [Compound I-62]
≥ 1000 | ≥ 1000 | ≥ 1000 | ≥ 1000 | – | – | C[C@H]1C[C@H](NC(=O)[C@H]2O[C@@H](n3cc(-c4ccn(C)n4)c4c(N)ncnc43)[C@H](O)[C@@H]2O)CCN1 [Compound I-190]
10 to 100 | ≥ 1000 | ≥ 1000 | 10 to 100 | – | – | CN1CCC(N(CCCN)C(=O)[C@H]2O[C@@H](n3cc(-c4ccn(C)n4)c4c(N)ncnc43)[C@H](O)[C@@H]2O)CC1 [Compound I-146]
≥ 1000 | ≥ 1000 | ≥ 1000 | 100 to 1000 | – | – | COC(=O)[C@@H](N)CCNC(=O)[C@H]1O[C@@H](n2cc(-c3ccn(C)n3)c3c(N)ncnc32)[C@H](O)[C@@H]1O [Compound I-42, methyl (2S)-2-amino-4-{[(2S,3S,4R,5R)-5-[4-amino-5-(1-methyl-1H-pyrazol-3-yl)-7H-pyrrolo[2,3-d]pyrimidin-7-yl]-3,4-dihydroxyoxolan-2-yl]formamido}butanoate]
100 to 1000 | ≥ 1000 | ≥ 1000 | 10 to 100 | – | – | CN1CC[C@@H](NC(=O)[C@H]2O[C@@H](n3cc(-c4ccn(C)n4)c4c(N)ncnc43)[C@H](O)[C@@H]2O)C1 [Compound I-184]
< 10 | 100 to 1000 | 100 to 1000 | 10 to 100 | – | – | CNc1ccc2ccc(NC(=O)[C@H]3O[C@@H](n4cc(-c5ccn(C)n5)c5c(N)ncnc54)[C@@H](F)[C@@H]3O)cc2n1 [Compound I-61]
100 to 1000 | ≥ 1000 | ≥ 1000 | 10 to 100 | – | – | CNC(=O)Nc1cc(NC(=O)[C@H]2O[C@@H](n3cc(-c4ccn(C)n4)c4c(N)ncnc43)[C@H](O)[C@@H]2O)ccn1 [Compound I-143]
100 to 1000 | ≥ 1000 | ≥ 1000 | ≥ 1000 | – | – | Cn1ccc(-c2cn([C@@H]3O[C@H](C(=O)N[C@H]4CC[C@@](C)(O)CC4)[C@@H](O)[C@H]3O)c3ncnc(N)c23)n1 [Compound I-209]
100 to 1000 | ≥ 1000 | ≥ 1000 | 100 to 1000 | – | – | C[C@H](NC(=O)[C@H]1O[C@@H](n2cc(-c3ccn(C)n3)c3c(N)ncnc32)[C@H](O)[C@@H]1O)C1CCNCC1 [Compound I-195]
≥ 1000 | ≥ 1000 | ≥ 1000 | 10 to 100 | – | – | CC(O)CCN(C(=O)[C@H]1O[C@@H](n2cc(-c3ccn(C)n3)c3c(N)ncnc32)[C@H](O)[C@@H]1O)C1CCN(C)CC1 (some centres unmarked) [Compound I-148]
100 to 1000 | ≥ 1000 | ≥ 1000 | 10 to 100 | – | – | Cn1ccc(-c2cn([C@@H]3O[C@H](C(=O)NC4CC5(CNC5)C4)[C@@H](O)[C@H]3O)c3ncnc(N)c23)n1 [Compound I-210]
≥ 1000 | ≥ 1000 | ≥ 1000 | ≥ 1000 | – | – | Cn1ccc(-c2cn([C@@H]3O[C@H](C(=O)N4CCC[C@@H](C(N)=O)C4)[C@@H](O)[C@H]3O)c3ncnc(N)c23)n1 [Compound I-174]
≥ 1000 | ≥ 1000 | ≥ 1000 | ≥ 1000 | – | – | Cn1ccc(-c2cn([C@@H]3O[C@H](C(=O)NC[C@H]4CC[C@@H](O)CC4)[C@@H](O)[C@H]3O)c3ncnc(N)c23)n1 [Compound I-45, (2S,3S,4R,5R)-5-[4-amino-5-(1-methyl-1H-pyrazol-3-yl)-7H-pyrrolo[2,3-d]pyrimidin-7-yl]-3,4-dihydroxy-N-{[(1s,4s)-4-hydroxycyclohexyl]methyl}oxolane-2-carboxamide]
100 to 1000 | – | – | 100 to 1000 | ≥ 1000 | ≥ 1000 | Cn1ccc(-c2cn([C@@H]3O[C@H](C(=O)NCCc4ccccc4)[C@@H](O)[C@H]3O)c3ncnc(N)c23)n1 [Compound I-192]
100 to 1000 | – | – | ≥ 1000 | ≥ 1000 | ≥ 1000 | CN1CCC(NC(=O)[C@H]2O[C@@H](n3cc(-c4ccn(C)n4)c4c(N)ncnc43)[C@@H](F)[C@@H]2O)CC1 [Compound I-60]
≥ 1000 | – | – | 10 to 100 | ≥ 1000 | ≥ 1000 | Cn1ccc(-c2cn([C@@H]3O[C@H](C(=O)NCCCN4CCCC4)[C@@H](O)[C@H]3O)c3ncnc(N)c23)n1 [Compound I-181]
≥ 1000 | – | – | 100 to 1000 | ≥ 1000 | ≥ 1000 | Cn1ccc(-c2cn([C@@H]3O[C@H](C(=O)Nc4cc(NC5CCC5)ncn4)[C@@H](O)[C@H]3O)c3ncnc(N)c23)n1 [Compound I-164]
